PubChem BioAssay (NCI)
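Cells were grown in 96-well plates and exposed to each compound for 48 hours at five concentrations; endpoints were interpolated linearly between bracketing concentrations, or set to the highest concentration if not reached. The concentration for 50% growth inhibition is given as GI50. TGI: total growth inhibition.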

How the values were obtained:
Assay in all cases: growth of human tumour cells (NCI), 48 h
[1] = system: A549 NSCLC
[2] = system: CCRF-CEM leukemia
[3] = system: HCT-15 colon
[4] = system: HL-60(TB) leukemia
[5] = system: K-562 leukemia
[6] = system: NCI/ADR-RES ovarian
[7] = system: RPMI-8226 leukemia
[8] = system: SF-539 CNS
[9] = system: SN12C renal
[10] = system: UO-31 renal

| SMILES | TGI [1] [µM] | TGI [2] [µM] | TGI [3] [µM] | TGI [4] [µM] | TGI [5] [µM] | TGI [6] [µM] | TGI [7] [µM] | TGI [8] [µM] | TGI [9] [µM] | TGI [10] [µM] | GI50 [1] [µM] | GI50 [2] [µM] | GI50 [4] [µM] | GI50 [5] [µM] | GI50 [6] [µM] | GI50 [7] [µM] | GI50 [8] [µM] | GI50 [9] [µM] | GI50 [10] [µM] | GI50 [3] [µM] |
| --- | --- | --- | --- | --- | --- | --- | --- | --- | --- | --- | --- | --- | --- | --- | --- | --- | --- | --- | --- | --- |
| Cc1ccc(Nc2nc(N)nc3c2ncn3C2OC(CO)C(O)C2O)cc1 (stereo not drawn) | > 100 | > 100 | > 100 | > 100 | > 100 | > 100 | > 100 | > 100 | > 100 | > 100 | – | – | – | – | – | – | – | – | – | – |
| C(=NCc1ccccc1)c1ccccc1-c1ccccc1C=NCc1ccccc1 | > 10 | > 10 | > 10 | 5.73 | 9.76 | > 10 | > 10 | > 10 | > 10 | > 10 | – | – | – | – | – | – | – | – | – | – |
| N=C(N)c1csc([C@@H]2O[C@H](CO)[C@@H](O)[C@H]2O)n1 | > 100 | > 100 | > 100 | > 100 | > 100 | – | > 100 | > 100 | > 100 | > 100 | – | – | – | – | – | – | – | – | – | – |
| CC(C)(C)[Si](C)(C)OCC1CCC(n2cnc3c(N)ncnc32)O1 (stereo not drawn) | – | > 100 | > 100 | > 100 | > 100 | – | > 100 | – | > 100 | > 100 | – | – | – | – | – | – | – | – | – | – |
| Cc1cccc2[s+]snc12 | > 100 | > 65.1 | > 72.3 | 41.8 | 59.3 | – | > 81.4 | > 100 | > 100 | > 100 | – | – | – | – | – | – | – | – | – | – |
| COC(=O)c1ccc(N=NN(C)COc2ccc([N+](=O)[O-])cc2)cc1 | > 100 | > 100 | > 100 | 52.5 | > 100 | > 100 | > 95.3 | > 100 | > 100 | > 100 | – | – | – | – | – | – | – | – | – | – |
| O=C(O)C1Cc2c([nH]c3ccccc23)C=N1 (stereo not drawn) | > 100 | > 100 | > 100 | > 100 | > 100 | > 100 | > 100 | > 100 | > 100 | > 100 | – | – | – | – | – | – | – | – | – | – |
| O=C1c2ccccc2-c2ccc(N=Nc3c(O)ccc4ccccc34)cc21 | > 100 | 35 | > 100 | – | > 100 | > 100 | > 100 | – | > 100 | > 100 | – | – | – | – | – | – | – | – | – | – |
| COc1cc(C2=C(C#N)C(N)OC3=C2COc2ccccc23)cc(OC)c1OC (stereo not drawn) | 49.3 | > 100 | > 100 | > 100 | > 100 | > 100 | > 100 | 50.5 | 39.1 | 12.7 | – | – | – | – | – | – | – | – | – | – |
| C/C(=N/O)c1cccc(Nc2nc3ccc(Cl)cc3c3[nH]c4ccccc4c23)c1 | 5.13 | – | 5.03 | 6.78 | > 100 | 6.26 | 3.52 | 12.3 | 9.53 | 8.86 | – | – | – | – | – | – | – | – | – | – |
| c1cn2cc(-c3ccc4ncn(C5CCCCC5)c4c3)nc(-c3ccc4c(c3)ncn4C3CCCCC3)c2n1 | 3.54 | 6.08 | – | 4.57 | > 100 | 7.33 | 3.99 | 3.15 | 4.53 | 2.85 | 1.94 | 1.69 | 1.84 | 2.58 | 2.34 | 0.806 | 1.63 | 2.05 | 1.49 | – |
| CC12CCC(C(=O)N3CC=CCC3)(OC1=O)C2(C)C (stereo not drawn) | > 100 | > 100 | > 100 | > 100 | > 100 | > 100 | > 100 | > 100 | > 100 | > 100 | – | – | – | – | – | – | – | – | – | – |
| CCC(=O)NC(Nc1ccc(O)cc1)(C(F)(F)F)C(F)(F)F | – | > 100 | > 100 | 46.5 | > 100 | – | > 100 | > 100 | > 100 | > 100 | – | – | – | – | – | – | – | – | – | – |
| O=[N+]([O-])c1ccc(Nc2nc3ccccc3s2)cc1 | > 100 | – | > 100 | – | 35 | > 100 | – | – | – | 66.5 | – | – | – | – | – | – | – | – | – | – |
| Nc1ccc2c3c(n(CCCCl)c(=O)c2c1)-c1cc2c(cc1C3=O)OCO2 | > 100 | > 100 | > 100 | > 100 | > 100 | > 100 | > 100 | – | > 100 | > 100 | 7.75 | > 100 | > 100 | > 100 | > 100 | > 100 | – | > 100 | 48.1 | > 100 |
| O=C1C(=O)c2ccccc2C(O)=C1CN(CCCl)CCCl | > 100 | > 100 | > 100 | > 100 | > 100 | – | – | > 100 | > 100 | > 100 | – | – | – | – | – | – | – | – | – | – |
| COC1CC(OC2CCC3(C)C(CCC45CCC(C6=CC(=O)OC6)C(C)(CCC43)C5=O)C2)OC(C)C1O (stereo not drawn) | > 100 | 50.6 | 52.2 | 43.7 | > 100 | > 100 | – | 63.3 | 61.9 | 35.8 | – | – | – | – | – | – | – | – | – | – |
